Test results as given in patent US6251627A (priority 1998, dated 2001).

B1: ovalbumin (protein, UniProt P01012 2-386, looked up)
Ovalbumin: GSIGAASMEFCFDVFKELKVHHANENIFYCPIAIMSALAMVYLGAKDSTRTQINKVVRFDKLPGFGDSIEAQCGTSVNVHSSLRDILNQITKPNDVYSFSLASRLYAEERYPILPEYLQCVKELYRGGLEPINFQTAADQARELINSWVESQTNGIIRNVLQPSSVDSQTAMVLVNAIVFKGLWEKAFKDEDTQAMPFRVTEQESKPVQMMYQIGLFRVASMASEKMKILELPFASGTMSMLVLLPDEVSGLEQLESIINFEKLTEWTSSNVMEERKIKVYLPRMKMEEKYNLTSVLMAMGITDVFSSSANLSGISSAESLKISQAVHAAHAEINEAGREVVGSAEAGVDAASVSEEFRADHPFLFCIKHIATNAVLFFGRCVSP
notes: ovalbumin (Sigma) osmotically loaded into the cells

Tests used:
[1] = molecular target: T1, K^b sol (soluble H-2K^b with murine β-2 microglobulin) (Mus musculus, UniProt P01901); assay: biochemical; type: binding
T1 construct: The cDNAs encoding K^b α1α2α3 domains (274 residues) and murine β-2 microglobulin (99 residues); made in house; host or cells: Drosophila S2/M3 cells, secreted into serum-free medium
T1 sequence (P01901 22-295): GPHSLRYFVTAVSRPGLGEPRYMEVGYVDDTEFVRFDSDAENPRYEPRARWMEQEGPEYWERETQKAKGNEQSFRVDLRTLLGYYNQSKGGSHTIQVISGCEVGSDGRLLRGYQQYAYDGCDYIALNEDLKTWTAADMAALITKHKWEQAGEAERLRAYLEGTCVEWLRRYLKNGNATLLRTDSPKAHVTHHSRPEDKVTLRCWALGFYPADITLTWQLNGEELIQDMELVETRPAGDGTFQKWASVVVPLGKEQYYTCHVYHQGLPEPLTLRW
T1 sequence (P01887 21-119 partner): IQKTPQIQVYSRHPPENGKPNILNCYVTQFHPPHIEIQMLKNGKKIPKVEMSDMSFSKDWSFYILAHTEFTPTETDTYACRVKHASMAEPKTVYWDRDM

B3/CD8 T-cell hybridoma = assay: antigen presentation assay with B3/CD8 T-cell hybridoma (IL-2 by CTLL 3H thymidine incorporation); type: cell-based, mouse; details: Drosophila cells transfected with K^b/β2; peptide in culture medium or protein osmotically loaded
Protocol: Osmotic loading of SC2 and 3T3 cells with ovalbumin protein was carried out as described by Moore, et al., Cell 54: 777-785 (1988). The assay procedure is as follows. In a 96-well dish, 1×10^5 Drosophila cells (with or without peptide/protein loaded) or 3T3 cells were cocultured with 1×10^5 B3/CD8 T-cell hybridoma cells in 200 μl of RPMI media supplemented with 10% fetal bovine serum. After 24 hours of incubation, 100 μl of the supernatant from these cultures was added to 100 μl of RPMI containing 5,000 CTLL cells. The cells were cocultured for 24 hours at 37° C. when 1 μCi of ^3 H thymidine (Amersham) was added. After a further incubation of 15 hours at 37° C., the incorporation of radiolabel into the CTLL cells was determined by scintillation counting.
Assays conducted with murine MHC also verified that the insect cells are capable of loading peptide onto the Class I molecules. Cells expressing as few as 200-500 MHC molecules containing a particular antigen can be detected by a T-cell. […] Upon antigenic stimulation, B3/CD8 produces IL-2, measured by ^3 H thymidine incorporation in IL-2-dependenT-cell line CTLL (Gillis, et al., J. Immunol. 120: 2027 91978)). Thus, by measuring the amount of IL-2 produced, one can assay for T-cell recognition. […]

Row | Molecule | Kd [1] [nM] | T-cell recognition (IL-2 production by B3/CD8) (B3/CD8 T-cell hybridoma)
1 | CC(C)C[C@H](NC(=O)CNC(=O)[C@H](CCC(N)=O)NC(=O)[C@H](Cc1ccc(O)cc1)NC(=O)[C@@H](NC(=O)[C@H](Cc1ccc(O)cc1)NC(=O)CNC(=O)[C@@H](N)CCCNC(=N)N)C(C)C)C(=O)O [VSV-8] | 3.7 | 
2 | B1 |  | no recognition occurred
